Experimental data reported in PubChem BioAssay (NCI).
Where “and” joins values, the source holds several entries; their conditions need not be identical. Identical values can stand only once.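 Cells were grown in 96-well plates and exposed to each compound for 48 hours at five concentrations; endpoints were interpolated linearly between bracketing concentrations, or set to the highest concentration if not reached. Abbreviation: GI50, concentration required for 50% inhibition of growth. TGI: concentration producing complete growth inhibition.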

Experiments:
Test in all cases: NCI tumour cell line growth inhibition, 48 h
K-562 leukemia = system: K-562 leukemia
SK-OV-3 ovarian = system: SK-OV-3 ovarian
HOP-92 NSCLC = system: HOP-92 NSCLC
T-47D breast = system: T-47D breast
SNB-75 CNS = system: SNB-75 CNS
MOLT-4 leukemia = system: MOLT-4 leukemia
M14 melanoma = system: M14 melanoma
MDA-MB-231 breast = system: MDA-MB-231 breast
IGROV1 ovarian = system: IGROV1 ovarian
UACC-62 melanoma = system: UACC-62 melanoma

SMILES	GI50 (K-562 leukemia) [µM]	TGI (K-562 leukemia)	GI50 (SK-OV-3 ovarian) [µM]	TGI (SK-OV-3 ovarian)	GI50 (HOP-92 NSCLC) [µM]	TGI (HOP-92 NSCLC)	GI50 (T-47D breast) [µM]	TGI (T-47D breast) [µM]	GI50 (SNB-75 CNS) [µM]	TGI (SNB-75 CNS)	GI50 (MOLT-4 leukemia) [µM]	TGI (MOLT-4 leukemia)	GI50 (M14 melanoma) [µM]	TGI (M14 melanoma)	GI50 (MDA-MB-231 breast) [µM]	TGI (MDA-MB-231 breast) [µM]	GI50 (IGROV1 ovarian) [µM]	TGI (IGROV1 ovarian)	GI50 (UACC-62 melanoma) [µM]	TGI (UACC-62 melanoma)
Cn1c(COC(=O)NCCc2ccccn2)nc2c(N3CCOCC3)nc(Cl)nc21	1.63	75.2 µM	12	24.3 µM	1.13	3.22 µM	1.65	3.67	1.38	11.8 µM	2.41	8.09 µM	1.53	3.34 µM	1.62	3.63	1.31	2.84 µM	1.65	3.29 µM
CC(C)(C)C[C@H]1N[C@@H](C(=O)NC2CCC(O)CC2)[C@H](c2cccc(Cl)c2F)[C@@]12C(=O)Nc1cc(Cl)ccc12 (stereo partly specified)	4.15	18.7 µM	11.2	23.8 µM	3.28	15 µM	5.98	22.8	3.78	17.9 µM	0.314	1.81 µM	4.05	17.3 µM	1.82	4.41	2.07	16.7 µM	0.235	2.46 µM
Cc1ccc(/C(=N/Nc2ccc([N+](=O)[O-])cc2)Sc2cc(Cl)c(C)cc2S(N)(=O)=O)cc1	3.11	> 38.4 µM	1.94	4.34 µM	1.45	3.77 µM	3.14	> 23.2	2.06	3.94 µM	3.35	12.3 µM	1.78	3.85 µM	0.8	2.24	2.44	14.6 µM	1.73	3.64 µM
C/C(=N/NC(=S)Nc1ccccc1)c1nc2ccc(Cl)cc2[nH]1	0.147	13.4 µM	0.246	1.39 µM	0.585	1.52 µM	0.292	1.56	0.328	1.04 µM	0.086	1.1 µM	0.0763	0.26 µM	0.205	1.79	0.14	1.19 µM	0.126	0.425 µM
CC1(C)CC(C)(C)c2cc(NC(=S)Nc3ccc([N+](=O)[O-])cc3)ccc2S1	10.8	> 60 µM	16.5	54.8 µM	19.1	36.5 µM	17.1	> 52.6	16.7	48.7 µM	19.1	> 100 µM	17.9	> 53.9 µM	10.8	22.6	10.5	29 µM	10.9	25 µM
O=c1c(-c2ccc3c(c2)OCO3)coc2c3c(ccc12)OCO3		> 100 µM		40.9 µM		38.5 µM		> 100		49.7 µM		> 100 µM		> 100 µM		41		59.7 µM		> 100 µM
O=c1[nH]c(C2CCCN2)nc2c1oc1ccc(Cl)cc12 (stereo unspecified)	> 84.4	> 100 µM	> 100	> 100 µM	12.4	> 91.1 µM	30.5	> 100	17.9	> 100 µM	> 100	> 100 µM	57.1	> 100 µM	> 100	> 100	> 100	> 100 µM	98.8	> 100 µM
[N-]=[N+]=CC(=O)CCC(N)C(=O)O (stereo unspecified)	3.27	> 250 µM		34.3 µM		69.3 µM	16.2	> 250	39.4	191 µM	0.468		10.6	> 250 µM		> 250	3.51	43 µM and > 134 µM	3.82	> 147 µM
COc1cc(/C=N/NC(=O)c2cnn3c2NC(c2ccccc2)C3)ccc1OC1CCCC1 (stereo unspecified)	0.348	> 30.4 µM	1.57	8.49 µM	0.684	3.69 µM	0.704	10.4	0.207	0.778 µM	1.23	11.1 µM	0.646	5.19 µM	1.67	7.85	0.723	9.4 µM	0.573	3.67 µM
Cn1c(COC(=O)NCCn2ccnc2)nc2c(N3CCOCC3)nc(-c3ccccc3)nc21	0.347	2 µM	3.63	10.6 µM	0.343	1.72 µM	1.43	4.17	0.759	2.15 µM	0.441	2.41 µM	0.561	1.92 µM	1.06	2.34	0.657	1.94 µM	1.23	2.5 µM
O=C1C(=O)c2c(nc3ccc(C(F)(F)F)cn23)-c2ccccc21	0.175	0.787 µM	0.551	1.12 µM	0.265	0.773 µM	0.214	0.57	0.202	0.465 µM	0.237	0.602 µM	0.18	0.329 µM	0.215	0.74	0.191	0.47 µM	0.179	0.343 µM
COc1c2ccoc2nc2c(OC)c(OCC(O)C(C)(C)O)ccc12 (stereo unspecified)		> 100 µM		> 100 µM		> 100 µM		> 100		> 100 µM		> 100 µM		> 100 µM		> 100		> 100 µM		> 100 µM
COc1cc(C2CC(c3ccc(Nc4nc(NCCO)nc(NCCO)n4)cc3)=NN2c2cc(Cl)cc(Cl)c2)cc(OC)c1OC (stereo unspecified)	1.47	3.58 µM	11.1	23.1 µM	1.46	6.73 µM	1.18	12.1	1.05	3.05 µM	1	4.12 µM	1.58	3.24 µM	1.45	3.44	2.02	4.8 µM	1.58	3.04 µM
Cc1n[nH]c2ccccc2c1=O		> 100 µM		> 100 µM		> 100 µM		> 100		> 100 µM		> 100 µM		> 100 µM		> 100		> 100 µM		> 100 µM
O=C1NC(=NCCc2ccc(Cl)cc2)S/C1=C\c1ccc2ncccc2c1	> 25	> 25 µM	17.5	> 25 µM	7.32	> 25 µM	18.1	> 25	6.77	> 21.6 µM	18.8	> 25 µM	25	> 25 µM	> 25	> 25	17.6	> 25 µM	17.4	> 25 µM
CC(C)Cc1cnc(CC(C)C)c(=O)[nH]1		> 100 µM		> 100 µM		> 100 µM		> 100		> 100 µM		> 100 µM		> 100 µM		> 100		> 100 µM		> 100 µM
C[C@@H]1C[C@@H]([C@H](O)CC2CC(=O)NC(=O)C2)C(=O)[C@@H](C)C1	0.165	11.9 µM and 2.93 µM	0.275	5.31 µM and 12.2 µM	0.178	7.57 µM and 2.05 µM	0.231	5.07	0.333	4.93 µM and 1.43 µM	0.139	2.06 µM and 0.518 µM	0.248	2.8 µM and 1.6 µM	0.608	7.16	0.388	15 µM and 3.15 µM	0.321	8.14 µM and 10.5 µM
